Experimental findings from US8076287B2, “Cyclic hexadepsipeptides, processes for their production and their use as pharmaceuticals” (priority 2006, dated 2011) are described below.

In brackets after ≈: the same amount, converted by molar mass. Like-named read-outs stand apart in the source and are kept apart here. Bounds are passed on as bounds.

Data set [1] has as its system MDA-MB-231 (mammary gland adenocarcinoma). Briefly: In vitro cytotoxic activity (propidium iodide GI50). The format is cell-based. To be noted: Homo sapiens, 96 hrs.
In data set [2] the test system is PC-3 (prostate adenocarcinoma). The description is as above. The class given is cell-based. To be noted: 96 hrs.
Data set [3] relates to SF-268 (CNS). The data set is described as above. Conditions: Homo sapiens, 96 hrs. The format is cell-based.
For data set [4], the system named is HT-29 (colorectal carcinoma). The data set is described as above. The class given is cell-based. To be noted: Homo sapiens, 96 hrs.
Data set [5] relates to S. epidermidis ATCC ™ 12228. Description: MIC broth dilution, antibacterial activity. The format is cell-based. Conditions: Staphylococcus epidermidis, ATCC12228, MH medium, 35° C., 16 to 20 hours.
Data set [6] relates to Enterococcus faecalis ATCC ™ 29212 (VSE). Description: MIC broth dilution, antibacterial activity. The format is cell-based. Conditions: ATCC29212, BHI+ medium.
For data set [7], the system named is S. aureus MRS3 ATCC ™ 700699 (MRSA-hVISA). Briefly: MIC broth dilution, antibacterial activity. The format is cell-based. To be noted: Staphylococcus aureus, MH medium, 35° C., 16 to 20 hours. In general terms: Dilution methods test growth across graded concentrations, often in twofold steps.
Data set [8] deals with S. pneumoniae LSPQ 3412 (Penicillin sensitive). Description: MIC broth dilution, antibacterial activity. Conditions: Streptococcus pneumoniae, MH + 2% lysed horse blood. The class given is cell-based.
In data set [9] the test system is HUVEC (human umbilical vein endothelial cells). Briefly: In vitro cytotoxic activity (propidium iodide GI50). The class given is cell-based. Conditions: 72 hours.
Data set [10] has as its system Sheep red blood cells. Briefly: In vitro toxicity: hemolytic activity. The class given is cell-based. Conditions: 2 hrs at 37° C., prepared in DMSO. As for the experimental part: In vitro toxicity: Sheep red blood cells were exposed to Compound 1 for 2 hrs at 37° C. at concentrations ranging from 2 to 64 μg/mL. Hemolytic activity was determined by monitoring the amount of hemoglobin released spectrophotometrically.

In data set [11] the test system is Enterococcus faecalis ATCC ™ 51299 (VRE). Description: MIC broth dilution, antibacterial activity. The class given is cell-based. Conditions: BHI+ medium.
Data set [12] has as its system C. perfringens HER1390. Description: microbe, parasite or virus in culture. Conditions: Clostridium perfringens. The class given is cell-based.
The subject of data set [13] is B. subtilis ATCC ™ 23857. Description: MIC broth dilution, antibacterial activity. The class given is cell-based. To be noted: Bacillus subtilis, ATCC23857, BHI+ medium.
In data set [14] the test system is C. difficile ATCC ™ 9689. Briefly: microbe, parasite or virus in culture. The format is cell-based, Clostridium difficile. To be noted: Clostridioides difficile, ATCC9689.
Data set [15] deals with human MX-1 breast carcinoma xenograft. Description: In vivo efficacy in human breast cancer xenograft model. Also on record: species or system Harlan female athymic nude mice. As for the experimental part:
The antitumor activity of Compound 1 was tested in vivo in a human MX-1 breast carcinoma model in mice, formulated in 10% ethanol, 7.5% ethanolic polysorbate 80 (1 g/mL in ethanol), and 82.5% saline. Harlan female athymic nude mice (12 weeks of age on Day 1 (D1)) were used for this study. Human MX-1 carcinoma was maintained in athymic nude mice by serial engraftment. A tumor fragment (1 mm^3) was implanted subcutaneously into the right flank of each test mouse. Tumors were monitored twice weekly and then daily as their mean volume approached 80-120 mm^3.
On D1, animals were sorted into treatment groups 1 to 4 (groups 1 to 3: 9 mice; group 4:10 mice), with tumor sizes of 63-144 mm^3 and group mean tumor sizes of about 99 mm^3. Tumor volumes were calculated as (width^2×length) divided by 2. Tumor weight was estimated with the assumption that 1 mg is equivalent to 1 mm^3 of tumor volume.
Starting on Day 1, each group was treated with dosing volumes of 0.2 mL/20-g mouse in Groups 1 and 2, and 0.1 mL/20-g mouse for Groups 3 and 4, scaled to the body weight of each animal, and according to the following protocol:
Tumor measurements were taken twice weekly using calipers and were converted to tumor weight. Tumor weight was estimated with the assumption that 1 mg is equivalent to 1 mm^3 of tumor volume (tumor volume was determined as above). Body weights were also recorded daily for Day 1 to 5, and then twice weekly.
Each animal was euthanized when its neoplasm reached the predetermined endpoint size (1,500 mm^3). The “time to endpoint” (TTE) for each mouse was calculated by the following equation:
[formula] where “TTE” is expressed in days, “endpoint volume” is in mm^3, “b” is the intercept, and “m” is the slope of the line obtained by linear regression of a log-transformed tumor growth data set. The data set comprised the first observation that exceeded the study endpoint volume and the three consecutive observations that immediately preceded the attainment of the endpoint volume.
Treatment efficacy was determined from “tumor growth delay” (TGD), which is defined as the increase in “T” the median TTE for a treatment group compared to “C” the median for control group 1: TGD=T−C, expressed in days, or as a percentage of the median TTE of the control group (% TGD=(TGD/C)×100).
The “percentage of tumor growth inhibition” (TGI) is calculated as:
[formula] wherein MTVtreated and MTVvehicle are respectively the “median tumor volume” for the animals treated with Compound 1 and animals receiving the vehicle, on day 18 and day 0. Two-tailed statistical analyses were done using GraphPad Prism™ software.
The “MTV(n)” is defined as the median tumor volume on Day 53 in the number of animals remaining, n, whose tumors have not attained endpoint volume.
For orientation: In xenograft studies the graft and the host belong to different species.

Data set [16] in a line: In vivo acute toxicity (MTD). Also on record: species or system CD-1 nu/nu mice. Conditions: CD-1 nu/nu, mouse, saline with 10% EtOH and 7.5% polysorbate 80, read-out: maximum tolerated dose (MTD). As for the experimental part: In vivo toxicity: The acute toxicity in CD-1 nu/nu mice of Compound 1 was determined in a saline solution comprising 10% EtOH and 7.5% polysorbate 80. When given i.p., the maximum tolerated dose (MTD) was ≧5 mg/kg. The MTD was 2.5 mg/kg when Compound 1 was administered i.v.

The test system of data set [17] is M. Luteus ATCC ™ 9341. Briefly: MIC broth dilution, antibacterial activity. To be noted: Micrococcus luteus, ATCC9341, MH medium. The class given is cell-based.
For data set [18], the system named is Candida albicans ATCC™10231. Briefly: Antifungal activity, NCCLS M27-A broth dilution. The format is cell-based. To be noted: ATCC10231, after 48 hours, RPMI 1640. How it is done: Testing of antifungal activity was performed according to NCCLS method (NCCLS. Reference Method for Broth Dilution Antifungal Susceptibility Testing of Yeasts; Approved Standard. NCCLS document M27-A (ISBN 1-56238-328-0). NCCLS, 940 West Valley Road, Suite 1400, Wayne, Pa. 19087-1898 USA). Compound 1 was prepared as 100× stock solutions in DMSO, with concentrations ranging from 3.2 mg/mL to 0.003 mg/mL (a two-fold dilution series over 11 points). An aliquot of each 100× stock solution was diluted 50-fold in test medium described below to give a set of eleven (11) 2× solutions. 50 μL of each of the eleven 2× solutions was aliquoted into the corresponding well of a 12-well row, with the final well reserved for medium alone control. Inoculum density for the Candida albicans ATCC™10231 indicator strain was adjusted to OD600=0.1 in 5 mL 0.85% saline, then further diluted 1/1000 in RPMI 1640 medium. 50 μL of the final dilution (in test medium) of each indicator strain was added to each well of a 12-well row. This brings the final dilution of the test article or control compound in solution to 1×. The final inoculum was approximately 5×10^4 CFU/ml.

Data set [19] relates to C. diphtheriae HER1356. Briefly: MIC broth dilution, antibacterial activity. The format is cell-based. To be noted: Corynebacterium diphtheriae; C. diphtheriae HER1356 (strain C7); MH medium.
Data set [20] deals with S. pneumoniae LSPQ 3349 (Penicillin resistant). Briefly: MIC broth dilution, antibacterial activity. The class given is cell-based. Conditions: Streptococcus pneumoniae, MH + 2% lysed horse blood.
In data set [21] the test system is S. aureus ATCC ™ 6538P (MSSA). Briefly: MIC broth dilution, antibacterial activity. The format is cell-based. Conditions: Staphylococcus aureus, MH medium, 35° C., 16 to 20 hours.

By GI50 is commonly meant the concentration giving 50% growth inhibition. Take `COc1cccc2c1C(=O)c1c(O)c3c(c(O)c1C2=O)C[C@@](O)(C(C)=O)C[C@@H]3O[C@H]1C[C@H](N)[C@H](O)[C@H](C)O1` [Daunorubicin, reference compound]: the GI50 in data set [1] stood at 9 nM; in data set [2] it was 11 nM; in data set [3] it was 19 nM; in [4], 20 nM.
Usually MTD stands for the largest dose that counted as tolerated. Consider `CCC1OC(O)(C(C)(O)C(=O)NC2C(=O)N3NCCCC3C(=O)N(O)CC(=O)N3NCCCC3C(=O)N3CCC(C)(O)C3C(=O)N(O)C(C(C)C)C(=O)OC2C(C)C)CCC1CC(C)C` (centres unmarked) [Compound 1], for which the MIC was 0.094 µg/mL (≈ 0.102 µM) in data set [5]; 0.5 µg/mL (≈ 0.54 µM) in [6]; 0.5 µg/mL (≈ 0.54 µM) in [7]; 0.156 µg/mL in data set [8]; 1 µg/mL (≈ 1.08 µM) in data set [11]; below 0.008 µg/mL in [12]. Also, the MIC in data set [13] was 0.004 µg/mL (≈ 0.00432 µM); in data set [14], below 0.008 µg/mL; in data set [17], 0.063 µg/mL (≈ 0.0681 µM); in [18], 8 µg/mL (≈ 8.65 µM); in data set [19] it was below 0.008 µg/mL; in [20], 0.031 µg/mL. For the same compound, the MIC in [21] stood at 0.031 µg/mL (≈ 0.0335 µM). Moreover, the 50% growth inhibitory concentration (GI50) in data set [1] turned out to be 28 nM; in data set [2], 66 nM; in data set [3], 25 nM; in data set [9], 19 nM; in data set [4] it was 37 nM. Also, the “hemolytic activity (concentration)” value in data set [10] was 12.8 µM; in data set [10] (2 to 64 μg/mL tested) it was 11.8 µg/mL. For the same compound, the “percentage of tumor growth inhibition (TGI)” value in [15] (1 mg/kg i.p., median tumor volume vs vehicle, day 18) amounted to 51.6%. The “MTV(3), median tumor volume on Day 53 in animals remaining” value in [15] (1 mg/kg i.p., n=3 animals not at endpoint volume) stood at 6 mm^3. In data set [15] (1 mg/kg i.p., on Day 8, mean body weight), this compound came in with a body weight loss of 13%. For the same compound, the “tumor growth delay (TGD)” value in data set [15] (1 mg/kg i.p., when compared with vehicle) is listed as 82%. Further, in data set [15] (period Compound 1 was given once every four days), the “body weight loss during q4d dosing” value is “no severe body weight loss”. The maximal tolerated dose (MTD) in [16] (ip) was at least 5 mg/kg; in [16] (iv), 2.5 mg/kg.
Turning to `CN[C@H](CC(C)C)C(=O)N[C@H]1C(=O)N[C@@H](CC(N)=O)C(=O)N[C@H]2C(=O)N[C@H]3C(=O)N[C@H](C(=O)N[C@H](C(=O)O)c4cc(O)cc(O)c4-c4cc3ccc4O)[C@H](O)c3ccc(c(Cl)c3)Oc3cc2cc(c3O[C@@H]2O[C@H](CO)[C@@H](O)[C@H](O)[C@H]2O[C@H]2C[C@](C)(N)[C@H](O)[C@H](C)O2)Oc2ccc(cc2Cl)[C@H]1O` [Vancomycin, reference compound], the MIC in data set [8] stood at 0.25 µg/mL; in data set [12], 0.5 µg/mL (≈ 0.345 µM); in data set [13], 0.25 µg/mL (≈ 0.173 µM); in [14] it was 0.25 µg/mL (≈ 0.173 µM); in data set [17] it was 2 µg/mL (≈ 1.38 µM); in data set [19], 0.5 µg/mL (≈ 0.345 µM). In addition, the MIC in data set [20] was found to be 0.5 µg/mL.
